Patent publication US20250388605A1, “HETEROBIFUNCTIONAL COMPOUNDS AND METHODS OF TREATING DISEASE” (Halda Therapeutics OpCo, Inc., priority 2022, published 2025)

Legend:
BRD4-BD1 = molecular target: T1, BRD4-BD1 (Homo sapiens, UniProt O60885); experiment: Binding affinity to BRD4-BD1 (bromoKdELECT assay); conditions: 11-point 3-fold dilution series
T1 construct: made in house; host or cells: T7 phage grown in an E. coli host derived from the BL21 strain
Procedure: (§1) Compounds were tested using a bromoKdELECT assay. T7 phage strains displaying bromodomains were grown in parallel in 24-well blocks in an E. coli host derived from the BL21 strain. E. coli were grown to log-phase and infected with T7 phage from a frozen stock (multiplicity of infection=0.4) and incubated with shaking at 32° C. until lysis (90-150 minutes). The lysates were centrifuged (5,000×g) and filtered ([…]) to remove cell debris. Streptavidin-coated magnetic beads were treated with biotinylated small molecule or acetylated peptide ligands for 30 minutes at room temperature to generate affinity resins for bromodomain assays. The liganded beads were blocked with excess biotin and washed with blocking buffer (SeaBlock (Pierce), 1% BSA, 0.05% Tween 20, 1 mM DTT) to remove unbound ligand and to reduce nonspecific phage binding. Binding reactions were assembled by combining bromodomains, liganded affinity beads, and test compounds in 1× binding buffer (17% SeaBlock, 0.33×PBS, 0.04% Tween 20, 0.02% BSA, 0.004% Sodium azide, 7.4 mM DTT). Test compounds were prepared as 1000× stocks in 100% DMSO. Kds were determined using an 11-point 3-fold compound dilution series with one DMSO control point. All compounds for Kd measurements are distributed by acoustic transfer (non-contact dispensing) in 100% DMSO. The compounds were then diluted directly into the assays such that the final concentration of DMSO was 0.09%. All reactions performed in polypropylene 384-well plates. Each was a final volume of 0.02 ml. The assay plates were incubated at room temperature with shaking for 1 hour and the affinity beads were washed with wash buffer (1×PBS, 0.05% Tween 20). The beads were then resuspended in elution buffer (1×PBS, 0.05% Tween 20, 2 M non-biotinylated affinity ligand) and incubated at room temperature with shaking for 30 minutes. The bromodomain concentration in the eluates was measured by qPCR.

BRD4-BD2 = molecular target: T2, BRD4-BD2 (Homo sapiens, UniProt O60885); experiment: Binding affinity to BRD4-BD2 (bromoKdELECT assay); conditions: 11-point 3-fold dilution series
T2 construct: made in house; host or cells: T7 phage grown in an E. coli host derived from the BL21 strain
Procedure: as §1, with “2 μM” for “2 M”

[1] = tested on: T-Rex 293 cell line SC3 cells having increased expression of androgen receptor protein due to exposure to doxycycline; experiment: Cellular growth inhibition, T-Rex 293 SC3 cells with doxycycline (increased androgen receptor expression), CellTiter-Glo; format: cell-based; conditions: T-Rex 293 SC3 cells with 10 ng/mL doxycycline (increased androgen receptor expression), 72 hours, CellTiter-Glo 2.0
Summary of the method: (§2)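 Growth inhibition is measured in an inducible AR-expressing T-Rex 293 clone, SC3, cultured with or without 10 ng/mL doxycycline in hormone-depleted medium. Test compounds are applied for 72 hours. GI50 values derive from CellTiter-Glo 2.0 signal fitted by four-parameter regression.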

[2] = tested on: T-Rex 293 cell line SC3 cells lacking increased expression of androgen receptor protein; experiment: Cellular growth inhibition, T-Rex 293 SC3 cells without doxycycline (no increased androgen receptor expression), CellTiter-Glo; format: cell-based; conditions: T-Rex 293 SC3 cells not exposed to doxycycline (no increased androgen receptor expression), 72 hours
Summary of the method: as §2

VCaP cells = experiment: Cellular growth inhibition assay for VCaP cells, CellTiter-Glo; format: cell-based, human; conditions: 72 hours
Summary of the method: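 GI50 values come from four-parameter curve fits of luminescence data normalized to a zero baseline. Compound, in medium with 0.5% DMSO, was added one day after plating and left for 72 h before CellTiter-Glo 2.0 addition.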

Compound | Kd (BRD4-BD1) | Kd (BRD4-BD2) | GI50 [1] | GI50 [2] | GI50 (VCaP cells; Homo sapiens) | GI50 (VCaP cells)
CCS(=O)(=O)Nc1ccc(Oc2cccc(OCCCN3CCN(CCCN(C)c4ncc(C(=O)N[C@H]5C(C)(C)[C@H](Oc6ccc(C#N)c(Cl)c6)C5(C)C)cn4)CC3)c2)c(-c2cn(C)c(=O)c3[nH]ccc23)c1 [Compound I-5] | 50 to 500 nM | < 50 nM | < 500 nM | 500 to 1500 nM |  | 
CCS(=O)(=O)Nc1ccc(Oc2cccc(OCCOCCOCCOCCOCCOCCOCCOC3CCN(c4ncc(C(=O)N[C@H]5C(C)(C)[C@H](Oc6ccc(C#N)c(Cl)c6)C5(C)C)cn4)CC3)c2)c(-c2cn(C)c(=O)c3[nH]ccc23)c1 [Compound I-9] | 50 to 500 nM | < 50 nM | < 500 nM | 500 to 1500 nM | < 500 nM | 
CCS(=O)(=O)Nc1ccc(Oc2cccc(OCCCN3CCN(CCCOC4CCN(c5ncc(C(=O)N[C@H]6C(C)(C)[C@H](Oc7ccc(C#N)c(Cl)c7)C6(C)C)cn5)CC4)CC3)c2)c(-c2cn(C)c(=O)c3[nH]ccc23)c1 [Compound I-10] | 50 to 500 nM | < 50 nM | < 500 nM | < 500 nM | < 500 nM | 
Cn1cc(-c2cc(NS(=O)(=O)C3CC3)ccc2Oc2cccc(OCCOC3CCN(c4ncc(C(=O)N[C@H]5C(C)(C)[C@H](Oc6ccc(C#N)c(Cl)c6)C5(C)C)cn4)CC3)c2)c2cc[nH]c2c1=O [Compound I-48, N-((1r, 3r)-3-(3-chloro-4-cyanophenoxy)-2,2,4,4-tetramethylcyclobutyl)-2-(4-(2-(3-(4-(cyclopropanesulfonamido)-2-(6-methyl-7-oxo-6,7-dihydro-1H-pyrrolo[2,3-c]pyridin-4-yl)phenoxy)phenoxy)ethoxy)piperidin-1-yl)pyrimidine-5-carboxamide] | > 2500 nM | 500 to 2500 nM | < 500 nM | > 3000 nM | < 500 nM | 
CN(c1ccc(Oc2cccc(OCCOC3CCN(c4ncc(C(=O)N[C@H]5C(C)(C)[C@H](Oc6ccc(C#N)c(Cl)c6)C5(C)C)cn4)CC3)c2)c(-c2cn(C)c(=O)c3[nH]ccc23)c1)S(=O)(=O)C1CC1 [Compound I-49] | > 2500 nM | 500 to 2500 nM | < 500 nM | > 3000 nM | < 500 nM | 
CN(c1ccc(Oc2cccc(OCCOC3CCN(c4ncc(C(=O)N[C@H]5C(C)(C)[C@H](Oc6ccc(C#N)c(Cl)c6)C5(C)C)cn4)CC3)c2)c(-c2cn(C)c(=O)c3[nH]ccc23)c1)S(C)(=O)=O [Compound I-51] | > 2500 nM | 500 to 2500 nM | < 500 nM | < 500 nM | < 500 nM | 
CCS(=O)(=O)N(C)c1ccc(Oc2cccc(OCCOC3CCN(c4ncc(C(=O)N[C@H]5C(C)(C)[C@H](Oc6ccc(C#N)c(Cl)c6)C5(C)C)cn4)CC3)c2)c(-c2cn(C)c(=O)c3[nH]ccc23)c1 [Compound I-52] | > 2500 nM | 500 to 2500 nM | < 500 nM | < 500 nM | < 500 nM | 
CCS(=O)(=O)Nc1ccc(Oc2cccc(OCCOC3CCN(c4ncc(C(=O)N[C@H]5C(C)(C)[C@H](Oc6ccc(C#N)c(Cl)c6)C5(C)C)cn4)CC3)c2F)c(-c2cn(C)c(=O)c3[nH]ccc23)c1 [Compound I-64] | > 2500 nM | < 50 nM | < 500 nM | < 500 nM | < 500 nM | 
CCS(=O)(=O)Nc1ccc(OC(COCCOC2CCN(c3ncc(C(=O)N[C@H]4C(C)(C)[C@H](Oc5ccc(C#N)c(Cl)c5)C4(C)C)cn3)CC2)C2CC2)c(-c2cn(C)c(=O)c3[nH]ccc23)c1 (stereo partly drawn) [Compound I-67] | 50 to 500 nM | 50 to 500 nM | < 500 nM | < 500 nM | < 500 nM | 
CCS(=O)(=O)Nc1ccc(OCC(OCCOC2CCN(c3ncc(C(=O)N[C@H]4C(C)(C)[C@H](Oc5ccc(C#N)c(Cl)c5)C4(C)C)cn3)CC2)C2CC2)c(-c2cn(C)c(=O)c3[nH]ccc23)c1 (stereo partly drawn) [Compound I-68, N-((1r, 3r)-3-(3-chloro-4-cyanophenoxy)-2,2,4,4-tetramethylcyclobutyl)-2-(4-(2-(1-cyclopropyl-2-(4-(ethylsulfonamido)-2-(6-methyl-7-oxo-6,7-dihydro-1H-pyrrolo[2,3-c]pyridin-4-yl)phenoxy)ethoxy)ethoxy)piperidin-1-yl)pyrimidine-5-carboxamide] | 50 to 500 nM | 50 to 500 nM | < 500 nM | > 3000 nM | < 500 nM | 
CN(c1ccc(Oc2cccc(OCCN3CCN(c4ncc(C(=O)N[C@H]5C(C)(C)[C@H](Oc6ccc(C#N)c(Cl)c6)C5(C)C)cn4)CC3)c2)c(-c2cn(C)c(=O)c3[nH]ccc23)c1)S(=O)(=O)C1CC1 [Compound I-95] | 500 to 2500 nM | 50 to 500 nM | < 500 nM | < 500 nM | < 500 nM | 
CCS(=O)(=O)Cc1ccc(Oc2cccc(OCCN3CCN(c4ncc(C(=O)N[C@H]5C(C)(C)[C@H](Oc6ccc(C#N)c(Cl)c6)C5(C)C)cn4)CC3)c2)c(-c2cn(C)c(=O)c3[nH]ccc23)c1 [Compound I-106] | 50 to 500 nM | < 50 nM | < 500 nM | < 500 nM |  | < 500 nM
CCS(=O)(=O)Cc1ccc(Oc2cccc(OCCC3CCN(c4ncc(C(=O)N[C@H]5C(C)(C)[C@H](Oc6ccc(C#N)c(Cl)c6)C5(C)C)cn4)CC3)c2)c(-c2cn(C)c(=O)c3[nH]ccc23)c1 [Compound I-109] | > 2500 nM | 500 to 2500 nM | < 500 nM | < 500 nM |  | < 500 nM
CCS(=O)(=O)Cc1ccc(Oc2cccc(CCCN3CCN(c4ncc(C(=O)N[C@H]5C(C)(C)[C@H](Oc6ccc(C#N)c(Cl)c6)C5(C)C)cn4)CC3)c2)c(-c2cn(C)c(=O)c3[nH]ccc23)c1 [Compound I-133] | 50 to 500 nM | < 50 nM | < 500 nM | < 500 nM |  | < 500 nM
CCS(=O)(=O)c1ccc(Oc2cccc(OCCCC3CCN(c4ncc(C(=O)N[C@H]5C(C)(C)[C@H](Oc6ccc(C#N)c(Cl)c6)C5(C)C)cn4)CC3)c2F)c(-c2cn(C)c(=O)c3[nH]ccc23)c1 [Compound I-140] | > 2500 nM | > 2500 nM | < 500 nM | < 500 nM | 1500 to 3000 nM | 
CCS(=O)(=O)Cc1ccc(Oc2cccc(CCCN3CCN(c4ncc(C(=O)N[C@H]5C(C)(C)[C@H](Oc6ccc(C#N)c(Cl)c6)C5(C)C)cn4)CC3)c2F)c(-c2cn(C)c(=O)c3[nH]ccc23)c1 [Compound I-144] | 50 to 500 nM | < 50 nM | < 500 nM | < 500 nM |  | < 500 nM
CCS(=O)(=O)Nc1ccc(Oc2ccc(CCOC3CCN(c4ncc(C(=O)N[C@H]5C(C)(C)[C@H](Oc6ccc(C#N)c(Cl)c6)C5(C)C)cn4)CC3)cc2)c(-c2cn(C)c(=O)c3[nH]ccc23)c1 [Compound I-151] | 50 to 500 nM | < 50 nM | < 500 nM | < 500 nM | < 500 nM | 
